From patent US12410160B2 (Gilead Sciences, Inc., priority 2021, dated 2025)

Key:
human KHK-A = human KHK-A (Homo sapiens (Human), UniProt P50053); assay: KHK Biochemical Assay (IC50), ADP-Glo, KHK-A; conditions: ADP-Glo; average of at least two separate assays
Procedure, shortened: (§1)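 ADP-Glo luminescence measured ADP made over a 4 h room-temperature reaction of ATP plus fructose, started after 30 min compound–enzyme pre-incubation. Buffer: 50 mM Hepes pH 7.4, 140 mM KCl, 5 mM MgCl2, 0.01% Triton-X. Enzyme was His-tagged, BL21 (DE3)-expressed, Ni-NTA-purified; compounds in 1:3 DMSO dilution series.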

human KHK-C = human KHK-C (Homo sapiens (Human), UniProt P50053); assay: KHK Biochemical Assay (IC50), ADP-Glo, KHK-C; conditions: ADP-Glo; average of at least two separate assays
human KHK-C, sequence (P50053 whole entry): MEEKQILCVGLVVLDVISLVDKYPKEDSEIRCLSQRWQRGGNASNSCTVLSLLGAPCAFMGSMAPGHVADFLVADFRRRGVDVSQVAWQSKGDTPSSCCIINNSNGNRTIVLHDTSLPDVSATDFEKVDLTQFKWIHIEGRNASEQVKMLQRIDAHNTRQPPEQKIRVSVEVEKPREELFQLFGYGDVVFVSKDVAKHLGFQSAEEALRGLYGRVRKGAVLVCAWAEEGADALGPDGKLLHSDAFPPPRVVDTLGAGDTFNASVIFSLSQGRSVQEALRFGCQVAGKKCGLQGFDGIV
Procedure, shortened: as §1

[1] = biological target: KHK-C expressed in NRK-52E cells (Homo sapiens (Human), UniProt P50053); assay: KHK-C Cell-based Assay (EC50), NRK CTG, fructose-mediated ATP-depletion
KHK-C expressed in NRK-52E cells, sequence (P50053 whole entry): as above

human KHK-A, sequence (P50053 other isoform, or with tags, fused parts or gaps): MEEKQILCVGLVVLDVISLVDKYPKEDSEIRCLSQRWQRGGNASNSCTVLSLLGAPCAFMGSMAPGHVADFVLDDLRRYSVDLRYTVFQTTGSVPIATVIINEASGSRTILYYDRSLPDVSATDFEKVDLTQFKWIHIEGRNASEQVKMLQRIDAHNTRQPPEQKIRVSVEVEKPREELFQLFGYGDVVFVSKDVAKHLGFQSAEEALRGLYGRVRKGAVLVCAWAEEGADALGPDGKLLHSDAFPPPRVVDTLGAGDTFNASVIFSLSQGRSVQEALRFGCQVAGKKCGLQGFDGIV

IC50 (human KHK-A) | IC50 (human KHK-C) | EC50 [1] | SMILES
37.8 nM | 38.4 nM | 390 nM | C[C@H]1CCN1c1nc2c(c(-c3cccc(C(=O)NCC(N)=O)c3)n1)CCC2 [Example 216, N-(2-amino-2-oxo-ethyl)-3-[2-[(2S)-2-methylazetidin-1-yl]-6,7-dihydro-5H-cyclopenta[d]pyrimidin-4-yl]benzamide]
130 nM | 90.3 nM | > 5000 nM | C[C@H]1CCN1c1nc2c(c(-c3cccc(C(=O)NCCC(=O)O)c3)n1)CCC2 [Example 217, 3-[[3-[2-[(2S)-2-methylazetidin-1-yl]-6,7-dihydro-5H-cyclopenta[d]pyrimidin-4-yl]benzoyl]amino]propanoic acid]
17.2 nM | 13.1 nM | 283 nM | C[C@H]1CCN1c1nc2c(c(-c3cccc(C(=O)NCCS(N)(=O)=O)c3)n1)CCC2 [Example 219, 3-[2-[(2S)-2-methylazetidin-1-yl]-6,7-dihydro-5H-cyclopenta[d]pyrimidin-4-yl]-N-(2-sulfamoylethyl)benzamide]
58.6 nM | 57.3 nM | 190 nM | C[C@H]1CCN1c1nc2c(c(-c3cccc(C(=O)NCCC(N)=O)c3)n1)CCC2 [Example 220, N-(3-amino-3-oxo-propyl)-3-[2-[(2S)-2-methylazetidin-1-yl]-6,7-dihydro-5H-cyclopenta[d]pyrimidin-4-yl]benzamide]
17.8 nM | 17.2 nM | 94.4 nM | C[C@H]1CCN1c1nc2c(c(-c3cnc(CN)s3)n1)CCC2 [Example 221, (S)-(5-(2-(2-methylazetidin-1-yl)-6,7-dihydro-5H-cyclopenta[d]pyrimidin-4-yl)thiazol-2-yl)methanamine]
25.5 nM | 17.2 nM | 26.9 nM | C[C@H]1[C@@H](F)CN1c1nc2c(c(-c3ccc(C(N)=O)cc3)n1)CCC2 [Example 226]
75.6 nM | 70.3 nM | 265 nM | C[C@H]1CCN1c1nc2c(c(-c3cccc(CNC(=O)CCO)c3)n1)CCC2 [Example 227, 3-hydroxy-N-[[3-[2-[(2S)-2-methylazetidin-1-yl]-6,7-dihydro-5H-cyclopenta[d]pyrimidin-4-yl]phenyl]methyl]propanamide]
56.7 nM | 50.6 nM | 199 nM | C[C@H]1CCN1c1nc2c(c(-c3cccc(CNC(=O)CO)c3)n1)CCC2 [Example 231, 2-hydroxy-N-[[3-[2-[(2S)-2-methylazetidin-1-yl]-6,7-dihydro-5H-cyclopenta[d]pyrimidin-4-yl]phenyl]methyl]acetamide]
46.1 nM | 44.8 nM | 1630 nM | C[C@H]1CCN1c1nc2c(c(-c3ccc4ccc(C(=O)O)cc4c3)n1)CCC2 [Example 232, 7-[2-[(2S)-2-methylazetidin-1-yl]-6,7-dihydro-5H-cyclopenta[d]pyrimidin-4-yl]naphthalene-2-carboxylic acid]
39.1 nM | 18.9 nM | 56.4 nM | C[C@H]1CCN1c1nc2c(c(-c3ccc4c(c3)S(=O)(=O)CNC4=O)n1)CCC2 [Example 234, 7-[2-[(2S)-2-methylazetidin-1-yl]-6,7-dihydro-5H-cyclopenta[d]pyrimidin-4-yl]-1,1-dioxo-2,3-dihydro-1lambda6,3-benzothiazin-4-one]
> 5000 nM | > 5000 nM | > 5000 nM | CO[C@@H]1CN(c2nc3c(c(-c4ccc(C(N)=O)cc4)n2)CCC3)[C@H]1C [Example 235, 4-(2-((2S,3R)-3-methoxy-2-methylazetidin-1-yl)-6,7-dihydro-5H-cyclopenta[d]pyrimidin-4-yl)benzamide]
183 nM | 173 nM | 4980 nM | C[C@H]1CCN1c1nc2c(c(-c3ccc4c(c3)C(=O)NC4=O)n1)CCC2 [Example 240, 5-[2-[(2S)-2-methylazetidin-1-yl]-6,7-dihydro-5H-cyclopenta[d]pyrimidin-4-yl]isoindoline-1,3-dione]
149 nM | 67.8 nM | 102 nM | C[C@H]1CCN1c1nc2c(c(-c3cccc(CC(N)=O)c3)n1)CCC2 [Example 244, 2-[3-[2-[(2S)-2-methylazetidin-1-yl]-6,7-dihydro-5H-cyclopenta[d]pyrimidin-4-yl]phenyl]acetamide]
73.6 nM | 80.3 nM | 374 nM | C[C@H]1CCN1c1nc2c(c(-c3ccc(CC(N)=O)cc3)n1)CCC2 [Example 245, 2-[4-[2-[(2S)-2-methylazetidin-1-yl]-6,7-dihydro-5H-cyclopenta[d]pyrimidin-4-yl]phenyl]acetamide]
360 nM | 163 nM | 422 nM | C[C@H]1CCN1c1nc2c(c(-c3cccc(C(N)C(F)(F)F)c3)n1)CCC2 (stereo partly drawn) [Example 246, 2,2,2-trifluoro-1-[3-[2-[(2S)-2-methylazetidin-1-yl]-6,7-dihydro-5H-cyclopenta[d]pyrimidin-4-yl]phenyl]ethanamine]
50 nM | 49.6 nM | 107 nM | C[C@H]1CCN1c1nc2c(c(-c3ccc4[nH]c(=O)[nH]c4c3)n1)CCC2 [Example 247, 5-[2-[(2S)-2-methylazetidin-1-yl]-6,7-dihydro-5H-cyclopenta[d]pyrimidin-4-yl]-1,3-dihydrobenzimidazol-2-one]
79.6 nM | > 100 nM | 154 nM | C[C@H]1CCN1c1nc2c(c(-c3ccc4c(c3)CC(=O)N4)n1)CCC2 [Example 248, 5-[2-[(2S)-2-methylazetidin-1-yl]-6,7-dihydro-5H-cyclopenta[d]pyrimidin-4-yl]indolin-2-one]
105 nM | 96.3 nM | 517 nM | C[C@H]1CCN1c1nc2c(c(-c3ccc(C45CC(C(=O)O)(C4)C5)cc3)n1)CCC2 [Example 249, 3-[4-[2-[(2S)-2-methylazetidin-1-yl]-6,7-dihydro-5H-cyclopenta[d]pyrimidin-4-yl]phenyl]bicyclo[1.1.1]pentane-1-carboxylic acid]
196 nM | 129 nM | 852 nM | C[C@H]1CCN1c1nc2c(c(-c3ccc(C45CC(C(N)=O)(C4)C5)cc3)n1)CCC2 [Example 250, 3-[4-[2-[(2S)-2-methylazetidin-1-yl]-6,7-dihydro-5H-cyclopenta[d]pyrimidin-4-yl]phenyl]bicyclo[1.1.1]pentane-1-carboxamide]
126 nM | 135 nM | 243 nM | C[C@H]1CCN1c1nc2c(c(-c3ccc4[nH]c(=O)n(C)c4c3)n1)CCC2 [Example 251, 3-methyl-5-[2-[(2S)-2-methylazetidin-1-yl]-6,7-dihydro-5H-cyclopenta[d]pyrimidin-4-yl]-1H-benzimidazol-2-one]
783 nM | 946 nM | 1670 nM | C[C@H]1CCN1c1nc2c(c(-c3ccc(C4(C(N)=O)CC4)cc3)n1)CCC2 [Example 252, 1-[4-[2-[(2S)-2-methylazetidin-1-yl]-6,7-dihydro-5H-cyclopenta[d]pyrimidin-4-yl]phenyl]cyclopropanecarboxamide]
204 nM | 239 nM | 2770 nM | C[C@H]1CCN1c1nc2c(c(-c3cccc(C4(C(=O)O)CC4)c3)n1)CCC2 [Example 253, 1-[3-[2-[(2S)-2-methylazetidin-1-yl]-6,7-dihydro-5H-cyclopenta[d]pyrimidin-4-yl]phenyl]cyclopropanecarboxylic acid]
600 nM | 517 nM | 607 nM | C[C@H]1CCN1c1nc2c(c(-c3cccc(C4(C(N)=O)CC4)c3)n1)CCC2 [Example 254, 1-[3-[2-[(2S)-2-methylazetidin-1-yl]-6,7-dihydro-5H-cyclopenta[d]pyrimidin-4-yl]phenyl]cyclopropanecarboxamide]
49.8 nM | 65.9 nM | 70.7 nM | C[C@H]1CCN1c1nc2c(c(-c3ccc(C(O)C4(C#N)CC4)cc3)n1)CCC2 (stereo partly drawn) [Example 255, 1-[hydroxy-[4-[2-[(2S)-2-methylazetidin-1-yl]-6,7-dihydro-5H-cyclopenta[d]pyrimidin-4-yl]phenyl]methyl]cyclopropanecarbonitrile]
519 nM | 262 nM | 161 nM | C[C@H]1CCN1c1nc2c(c(-c3ccc(C(O)C(F)F)cc3)n1)CCC2 (stereo partly drawn) [Example 256, 2,2-difluoro-1-[4-[2-[(2S)-2-methylazetidin-1-yl]-6,7-dihydro-5H-cyclopenta[d]pyrimidin-4-yl]phenyl]ethanol]
201 nM | 128 nM | 185 nM | C[C@H]1CCN1c1nc2c(c(-c3ccc(C(O)CF)cc3)n1)CCC2 (stereo partly drawn) [Example 257, 2-fluoro-1-[4-[2-[(2S)-2-methylazetidin-1-yl]-6,7-dihydro-5H-cyclopenta[d]pyrimidin-4-yl]phenyl]ethanol]
2000 nM | 2850 nM | 525 nM | C[C@H]1CCN1c1nc2c(c(-c3cccc(OC(F)F)c3)n1)CCC2 [Example 258, 4-[3-(difluoromethoxy)phenyl]-2-[(2S)-2-methylazetidin-1-yl]-6,7-dihydro-5H-cyclopenta[d]pyrimidine]
96.2 nM | 50 nM | 155 nM | C[C@H]1CCN1c1nc2c(c(-c3cnc4c(c3)NCCO4)n1)CCC2 [Example 263, 7-[2-[(2S)-2-methylazetidin-1-yl]-6,7-dihydro-5H-cyclopenta[d]pyrimidin-4-yl]-2,3-dihydro-1H-pyrido[2,3-b][1,4]oxazine]
> 5000 nM | > 5000 nM | > 5000 nM | C[C@]1(O)CCN(c2nc3c(c(-c4ccc(C(N)=O)cc4)n2)CCC3)C1 [Example 268, 4-[2-[(38)-3-hydroxy-3-methyl-pyrrolidin-1-yl]-6,7-dihydro-5H-cyclopenta[d]pyrimidin-4-yl]benzamide]
